{
  "source": "patent US20240090546A1",
  "about": "“COMPOSITIONS COMPRISING AND METHODS OF USING 1,3-PROPANEDIOL, TO IMPROVE SWEETNESS AND/OR REDUCE BITTERNESS OF SWEETENERS” (Primient Covation LLC, priority 2022, published 2024)",
  "format_in_all_cases": "in vivo, human",
  "key": {"panelists [1]": {"tested_on": "panelists", "experiment": "Absolute taste threshold of Zemea USP-FCC PDO in water (flash profile, blind tasting)", "conditions": "at 690 ppm (FEMA #4753 use limit for beverages)", "from_the_text": "(§1) • 1. Panelists: Recruit at least 5 and preferably 12 staff who has no allergy to the big 8 food allergens. • 2. Prototypes: • a. Freshly made to same age (<1 week if possible) • b. Serve all samples at same size (>1 oz for beverages), and at same temperature (70F for foods, 40F for beverages) • 3. Random coded (3-digit) and random ordered up to 5 samples • 4. Keep to less than 5 samples per panel session. Less than 4 panels/day. • 5. For each panelist, ship (under covid-19): • a. one set of 5 samples • b. one instruction (this page) ballot (attachment 1) and one example for how to fill in (attachment 2) • c. one bottled water (Aquafina or equivalent, no minerals added. Panelist to bring own under covid-19) • 6. […] Describe the panelists how to blind-taste same day upon receipt according to panelists instruction below. • 8. […] Ask each panelist to scan/send a picture of the filled-in ballot to panel leader. Panel leader will issue a “directional analysis” (1 day) as a minimum and may include PCA (3 days) leading to conclusions and recommendations.\n(§2) Instruction for Flash Profiling Method panelists: • 1. […] Please taste this set mid-morning (9a-N) or mid-afternoon (2-4p) if possible • 3. Arrange the 5 samples in front of you in any order • 4. For the Flash Profiling Method ballot, fill in today's Date, your Name, and Sample (s) as “project xxx-Round x samples” • 5. […]"}, "panelists [2]": {"tested_on": "panelists", "experiment": "Flash profile blind tasting of beverages and bitter substances with Zemea USP-FCC added", "conditions": "Zemea added at 5-940 ppm to the beverages and bitter substances of Table 1; blind tasting by N>6", "from_the_text": "as §1, §2"}, "[3]": {"tested_on": "Six panelists experienced in the evaluation of food and beverages", "experiment": "Screening of Zemea USP-FCC at 5, 20 and 100 ppm in reduced sugar stevia sweetened orange juice", "conditions": "5 ppm, compared with 20 and 100 ppm and control", "from_the_text": "Six panelists experienced in the evaluation of food and beverages screened Zemea® USP-FCC at 5, 20, and 100 ppm in a reduced sugar stevia sweetened orange juice. The reduced sugar stevia sweetened orange juice containing no Zemea® USP-FCC was used as the control."}, "40 untrained panelists": {"tested_on": "40 untrained panelists", "experiment": "Paired comparison test for bitterness, reduced sugar stevia sweetened orange juice", "method": "Paired comparison tests for bitterness were conducted on 40 untrained panelists. The reduced sugar stevia sweetened orange juice was used as the control and was prepared with 0.0005% Zemea® USP-FCC (5 ppm) as the test variable. The products were served in 2-ounce soufflé cups labeled with 3-digit codes at refrigerated temperatures. The panelists were asked to identify the sample that was more bitter. Bottled water and unsalted crackers were available for panelists to clear their palates before and during testing."}, "[4]": {"tested_on": "Six panelists experienced in the evaluation of food and beverages", "experiment": "Tasting of sweeteners with and without Zemea USP-FCC propanediol", "conditions": "sweetener with 5 ppm Zemea USP-FCC Propanediol versus without", "from_the_text": "Six panelists experienced in the evaluation of food and beverages tasted sweeteners and commercial beverages with and without the addition of Zemea USP-FCC propanediol. The six panelists tasted the products and discussed their perceptions of the flavor. They indicated whether the test or control product in each pair was sweeter, less bitter, and/or less sour."}},
  "data": [
    {"smiles": "OCCCO", "note": "[Zemea® USP-FCC Propanediol, 1,3-propanediol]", "values": [
      {"measurement": "taste of Zemea USP-FCC PDO", "setting": "panelists [1]", "result": "tasteless"},
      {"measurement": "bitterness of individual ingredients and beverages", "setting": "panelists [2]", "result": "less bitter"},
      {"measurement": "liking of individual ingredients and beverages", "setting": "panelists [2]", "result": "more liked"},
      {"measurement": "bitterness perception", "setting": "[3]", "result": "lowest bitterness perception"},
      {"measurement": "number of 40 untrained panelists who identified the sample as more bitter", "setting": "40 untrained panelists; 5 ppm (0.0005%) in stevia-sweetened orange juice, control chosen by 26, one-tailed exact p-value 0.04", "result": 14},
      {"measurement": "bitterness versus control containing no Zemea USP-FCC", "setting": "40 untrained panelists; 5 ppm added directly to reduced sugar orange juice with stevia, p-value 0.04, one-tailed", "result": "statistically less bitter"}
    ]},
    {"smiles": "O=C(CO)[C@@H](O)[C@@H](O)[C@H](O)CO", "note": "[Tagatose]", "values": [
      {"measurement": "Effect", "setting": "[4]", "result": "Enhanced sweetness"}
    ]},
    {"smiles": "O=C(CO)C(O)C(O)C(O)CO", "note": "(stereo not shown) [Allulose]", "values": [
      {"measurement": "Effect", "setting": "[4]", "result": "Enhanced sweetness"}
    ]},
    {"smiles": "OC[C@@H](O)[C@@H](O)CO", "note": "[Erythritol]", "values": [
      {"measurement": "Effect", "setting": "[4]", "result": "Enhanced sweetness"}
    ]},
    {"smiles": "OC[C@H]1O[C@@](CO)(O[C@H]2O[C@H](CO)[C@@H](O)[C@H](O)[C@H]2O)[C@@H](O)[C@@H]1O", "note": "[Sucrose, sucrose]", "values": [
      {"measurement": "Effect", "setting": "[4]", "result": "Enhanced sweetness"}
    ]}
  ]
}
